Laboratory results as given in patent US8530667B2, “Herbicides” (Syngenta Limited, priority 2007, dated 2013).

Test system: Setaria faberi (SETFA)
Assay: Example B pre-emergence herbicidal activity, glasshouse pot test
Assay type: in vivo
Details: 312 h, Rate 250 g/ha, evaluated after 13 days, read-out: Pre-Emergence Activity SETFA (100=total damage to plant; 0=no damage to plant)
Experimental: (§1) Seeds of a variety of test species were sown in standard soil in pots. After cultivation for one day (pre-emergence) or after 8 days cultivation (post-emergence) under controlled conditions in a glasshouse (at 24/16° C., day/night; 14 hours light; 65% humidity), the plants were sprayed with an aqueous spray solution derived from the formulation of the technical active ingredient in acetone/water (50:50) solution containing 0.5% Tween 20 (polyoxyethelyene sorbitan monolaurate, CAS RN 9005-64-5). The test plants were then grown in a glasshouse under controlled conditions in a glasshouse (at 24/16° C., day/night; 14 hours light; 65% humidity) and watered twice daily. After 13 days for pre and post-emergence, the test was evaluated (100=total damage to plant; 0=no damage to plant). Alopecurus myosuroides (ALOMY), Avena fatua (AVEFA), Setaria faberi (SETFA), Echinochloa crus-galli (ECHCG) and Amaranthus retoflexus (AMARE)

| SMILES | pest or weed control at 250 g/ha [%] |
| --- | --- |
| CCc1sc(COc2ccc(Cl)cc2)nc1C1C(=O)[C@@H]2[C@H](C1=O)[C@H]1CC[C@@H]2O1 (stereo partly shown) [Compound T40] | 100 |
| Cc1sc(-c2ccc(OC(F)F)cc2)nc1C1C(=O)[C@@H]2[C@H](C1=O)[C@H]1CC[C@@H]2O1 (stereo partly shown) [Compound T41] | 100 |
| CCc1sc(-c2ccc(OC(F)F)cc2)nc1C1C(=O)[C@@H]2[C@H](C1=O)[C@H]1CC[C@@H]2O1 (stereo partly shown) [Compound T42] | 100 |
| CCc1sc(-c2ccc(Br)cn2)nc1C1C(=O)[C@@H]2[C@H](C1=O)[C@H]1CC[C@@H]2O1 (stereo partly shown) [Compound T43] | 60 |

Test system: Avena fatua (AVEFA)
Assay: as above
Assay type: in vivo
Details: 312 h, Rate 250 g/ha, evaluated after 13 days, read-out: Pre-Emergence Activity AVEFA (100=total damage to plant; 0=no damage to plant)
Experimental: as §1

| SMILES | pest or weed control at 250 g/ha [%] |
| --- | --- |
| CCc1sc(COc2ccc(Cl)cc2)nc1C1C(=O)[C@@H]2[C@H](C1=O)[C@H]1CC[C@@H]2O1 (stereo partly shown) [Compound T40] | 40 |
| Cc1sc(-c2ccc(OC(F)F)cc2)nc1C1C(=O)[C@@H]2[C@H](C1=O)[C@H]1CC[C@@H]2O1 (stereo partly shown) [Compound T41] | 30 |
| CCc1sc(-c2ccc(OC(F)F)cc2)nc1C1C(=O)[C@@H]2[C@H](C1=O)[C@H]1CC[C@@H]2O1 (stereo partly shown) [Compound T42] | 30 |
| CCc1sc(-c2ccc(Br)cn2)nc1C1C(=O)[C@@H]2[C@H](C1=O)[C@H]1CC[C@@H]2O1 (stereo partly shown) [Compound T43] | 0 |

Test system: Alopecurus myosuroides (ALOMY)
Assay: as above
Assay type: in vivo
Details: 312 h, Rate 250 g/ha, evaluated after 13 days, read-out: Pre-Emergence Activity ALOMY (100=total damage to plant; 0=no damage to plant)
Experimental: as §1

| SMILES | pest or weed control at 250 g/ha [%] |
| --- | --- |
| CCc1sc(COc2ccc(Cl)cc2)nc1C1C(=O)[C@@H]2[C@H](C1=O)[C@H]1CC[C@@H]2O1 (stereo partly shown) [Compound T40] | 90 |
| Cc1sc(-c2ccc(OC(F)F)cc2)nc1C1C(=O)[C@@H]2[C@H](C1=O)[C@H]1CC[C@@H]2O1 (stereo partly shown) [Compound T41] | 100 |
| CCc1sc(-c2ccc(OC(F)F)cc2)nc1C1C(=O)[C@@H]2[C@H](C1=O)[C@H]1CC[C@@H]2O1 (stereo partly shown) [Compound T42] | 90 |
| CCc1sc(-c2ccc(Br)cn2)nc1C1C(=O)[C@@H]2[C@H](C1=O)[C@H]1CC[C@@H]2O1 (stereo partly shown) [Compound T43] | 0 |

Test system: Echinochloa crus-galli (ECHCG)
Assay: as above
Assay type: in vivo
Details: 312 h, Rate 250 g/ha, evaluated after 13 days, read-out: Pre-Emergence Activity ECHCG (100=total damage to plant; 0=no damage to plant)
Experimental: as §1

| SMILES | pest or weed control at 250 g/ha [%] |
| --- | --- |
| CCc1sc(COc2ccc(Cl)cc2)nc1C1C(=O)[C@@H]2[C@H](C1=O)[C@H]1CC[C@@H]2O1 (stereo partly shown) [Compound T40] | 100 |
| Cc1sc(-c2ccc(OC(F)F)cc2)nc1C1C(=O)[C@@H]2[C@H](C1=O)[C@H]1CC[C@@H]2O1 (stereo partly shown) [Compound T41] | 100 |
| CCc1sc(-c2ccc(OC(F)F)cc2)nc1C1C(=O)[C@@H]2[C@H](C1=O)[C@H]1CC[C@@H]2O1 (stereo partly shown) [Compound T42] | 90 |
| CCc1sc(-c2ccc(Br)cn2)nc1C1C(=O)[C@@H]2[C@H](C1=O)[C@H]1CC[C@@H]2O1 (stereo partly shown) [Compound T43] | 80 |

Test system: Amaranthus retoflexus (AMARE)
Assay: as above
Assay type: in vivo
Details: Amaranthus retroflexus, 312 h, Rate 250 g/ha, evaluated after 13 days, read-out: Pre-Emergence Activity AMARE (100=total damage to plant; 0=no damage to plant)
Experimental: as §1

| SMILES | pest or weed control at 250 g/ha [%] |
| --- | --- |
| CCc1sc(COc2ccc(Cl)cc2)nc1C1C(=O)[C@@H]2[C@H](C1=O)[C@H]1CC[C@@H]2O1 (stereo partly shown) [Compound T40] | 0 |
| Cc1sc(-c2ccc(OC(F)F)cc2)nc1C1C(=O)[C@@H]2[C@H](C1=O)[C@H]1CC[C@@H]2O1 (stereo partly shown) [Compound T41] | 0 |
| CCc1sc(-c2ccc(OC(F)F)cc2)nc1C1C(=O)[C@@H]2[C@H](C1=O)[C@H]1CC[C@@H]2O1 (stereo partly shown) [Compound T42] | 0 |
| CCc1sc(-c2ccc(Br)cn2)nc1C1C(=O)[C@@H]2[C@H](C1=O)[C@H]1CC[C@@H]2O1 (stereo partly shown) [Compound T43] | 0 |

Test system: Setaria faberi (SETFA)
Assay: Example B post-emergence herbicidal activity, glasshouse pot test
Assay type: in vivo
Details: 312 h, rate 250 g/ha, evaluated after 13 days, read-out: Post-emergence activity SETFA (100=total damage to plant; 0=no damage to plant)
Experimental: as §1

| SMILES | pest or weed control at 250 g/ha [%] |
| --- | --- |
| CCc1sc(COc2ccc(Cl)cc2)nc1C1C(=O)[C@@H]2[C@H](C1=O)[C@H]1CC[C@@H]2O1 (stereo partly shown) [Compound T40] | 100 |
| Cc1sc(-c2ccc(OC(F)F)cc2)nc1C1C(=O)[C@@H]2[C@H](C1=O)[C@H]1CC[C@@H]2O1 (stereo partly shown) [Compound T41] | 100 |
| CCc1sc(-c2ccc(OC(F)F)cc2)nc1C1C(=O)[C@@H]2[C@H](C1=O)[C@H]1CC[C@@H]2O1 (stereo partly shown) [Compound T42] | 100 |
| CCc1sc(-c2ccc(Br)cn2)nc1C1C(=O)[C@@H]2[C@H](C1=O)[C@H]1CC[C@@H]2O1 (stereo partly shown) [Compound T43] | 100 |

Test system: Avena fatua (AVEFA)
Assay: as above
Assay type: in vivo
Details: 312 h, rate 250 g/ha, evaluated after 13 days, read-out: Post-emergence activity AVEFA (100=total damage to plant; 0=no damage to plant)
Experimental: as §1

| SMILES | pest or weed control at 250 g/ha [%] |
| --- | --- |
| CCc1sc(COc2ccc(Cl)cc2)nc1C1C(=O)[C@@H]2[C@H](C1=O)[C@H]1CC[C@@H]2O1 (stereo partly shown) [Compound T40] | 70 |
| Cc1sc(-c2ccc(OC(F)F)cc2)nc1C1C(=O)[C@@H]2[C@H](C1=O)[C@H]1CC[C@@H]2O1 (stereo partly shown) [Compound T41] | 90 |
| CCc1sc(-c2ccc(OC(F)F)cc2)nc1C1C(=O)[C@@H]2[C@H](C1=O)[C@H]1CC[C@@H]2O1 (stereo partly shown) [Compound T42] | 100 |
| CCc1sc(-c2ccc(Br)cn2)nc1C1C(=O)[C@@H]2[C@H](C1=O)[C@H]1CC[C@@H]2O1 (stereo partly shown) [Compound T43] | 100 |

Test system: Alopecurus myosuroides (ALOMY)
Assay: as above
Assay type: in vivo
Details: 312 h, rate 250 g/ha, evaluated after 13 days, read-out: Post-emergence activity ALOMY (100=total damage to plant; 0=no damage to plant)
Experimental: as §1

| SMILES | pest or weed control at 250 g/ha [%] |
| --- | --- |
| CCc1sc(COc2ccc(Cl)cc2)nc1C1C(=O)[C@@H]2[C@H](C1=O)[C@H]1CC[C@@H]2O1 (stereo partly shown) [Compound T40] | 100 |
| Cc1sc(-c2ccc(OC(F)F)cc2)nc1C1C(=O)[C@@H]2[C@H](C1=O)[C@H]1CC[C@@H]2O1 (stereo partly shown) [Compound T41] | 100 |
| CCc1sc(-c2ccc(OC(F)F)cc2)nc1C1C(=O)[C@@H]2[C@H](C1=O)[C@H]1CC[C@@H]2O1 (stereo partly shown) [Compound T42] | 100 |
| CCc1sc(-c2ccc(Br)cn2)nc1C1C(=O)[C@@H]2[C@H](C1=O)[C@H]1CC[C@@H]2O1 (stereo partly shown) [Compound T43] | 90 |

Test system: Echinochloa crus-galli (ECHCG)
Assay: as above
Assay type: in vivo
Details: 312 h, rate 250 g/ha, evaluated after 13 days, read-out: Post-emergence activity ECHCG (100=total damage to plant; 0=no damage to plant)
Experimental: as §1

| SMILES | pest or weed control at 250 g/ha [%] |
| --- | --- |
| CCc1sc(COc2ccc(Cl)cc2)nc1C1C(=O)[C@@H]2[C@H](C1=O)[C@H]1CC[C@@H]2O1 (stereo partly shown) [Compound T40] | 100 |
| Cc1sc(-c2ccc(OC(F)F)cc2)nc1C1C(=O)[C@@H]2[C@H](C1=O)[C@H]1CC[C@@H]2O1 (stereo partly shown) [Compound T41] | 100 |
| CCc1sc(-c2ccc(OC(F)F)cc2)nc1C1C(=O)[C@@H]2[C@H](C1=O)[C@H]1CC[C@@H]2O1 (stereo partly shown) [Compound T42] | 100 |
| CCc1sc(-c2ccc(Br)cn2)nc1C1C(=O)[C@@H]2[C@H](C1=O)[C@H]1CC[C@@H]2O1 (stereo partly shown) [Compound T43] | 100 |

Test system: Amaranthus retoflexus (AMARE)
Assay: as above
Assay type: in vivo
Details: Amaranthus retroflexus, 312 h, rate 250 g/ha, evaluated after 13 days, read-out: Post-emergence activity AMARE (100=total damage to plant; 0=no damage to plant)
Experimental: as §1

| SMILES | pest or weed control at 250 g/ha [%] |
| --- | --- |
| CCc1sc(COc2ccc(Cl)cc2)nc1C1C(=O)[C@@H]2[C@H](C1=O)[C@H]1CC[C@@H]2O1 (stereo partly shown) [Compound T40] | 0 |
| Cc1sc(-c2ccc(OC(F)F)cc2)nc1C1C(=O)[C@@H]2[C@H](C1=O)[C@H]1CC[C@@H]2O1 (stereo partly shown) [Compound T41] | 0 |
| CCc1sc(-c2ccc(OC(F)F)cc2)nc1C1C(=O)[C@@H]2[C@H](C1=O)[C@H]1CC[C@@H]2O1 (stereo partly shown) [Compound T42] | 0 |
| CCc1sc(-c2ccc(Br)cn2)nc1C1C(=O)[C@@H]2[C@H](C1=O)[C@H]1CC[C@@H]2O1 (stereo partly shown) [Compound T43] | 0 |
